15 molecules from patent US20070010671A1, “Novel quinazoline derivatives and methods of treatment related to the use thereof” (priority 2003, published 2007) can be followed below.

This test concerns the target MCH receptor (Homo sapiens, UniProt Q99705). Nature of the test: High throughput functional screening FLIPR/FDSS6000: inhibition of MCH-evoked intracellular Ca2+ changes. In kind it is cell-based. As to conditions: class by percent of control at 10^-7 M or IC50. In outline: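 Antagonism is measured as inhibition of the intracellular calcium rise triggered by 50 nM MCH in cells bearing a constitutively active, non-endogenous form of the receptor. Cells are dye-loaded with Fluo4-AM and exposed to compound for 3 min at 37° C before agonist addition.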

In the case of `CN(C)c1nc(N[C@H]2CC[C@@H](CNC(=S)Nc3ccc(F)cc3F)CC2)nc2ccccc12` [compound 635], the class is given as 3 (Class 3: The value of percent of control at 10^−7 M was more than 60% or the value of IC50 was more than 200 nM.).

With `COc1ccc(OC)c(NC(=S)NC[C@H]2CC[C@@H](Nc3nc(N(C)C)c4ccccc4n3)CC2)c1` [compound 636], the class is listed as 3 (Class 3: The value of percent of control at 10^−7 M was more than 60% or the value of IC50 was more than 200 nM.).

In the case of `CN(C)c1nc(N[C@H]2CC[C@@H](CNC(=S)Nc3c(F)cccc3F)CC2)nc2ccccc12` [compound 637], the class is on record as 3 (Class 3: The value of percent of control at 10^−7 M was more than 60% or the value of IC50 was more than 200 nM.).

As to `CN(C)c1nc(N[C@H]2CC[C@@H](CNC(=S)Nc3ccc([N+](=O)[O-])cc3Cl)CC2)nc2ccccc12` [compound 638], the class is listed as 3 (Class 3: The value of percent of control at 10^−7 M was more than 60% or the value of IC50 was more than 200 nM.).

For `CN(C)c1nc(N[C@H]2CC[C@@H](CNC(=S)Nc3ccccc3OC(F)F)CC2)nc2ccccc12` [compound 639], the class is listed as 3 (Class 3: The value of percent of control at 10^−7 M was more than 60% or the value of IC50 was more than 200 nM.).

Consider `CCc1ccccc1NC(=S)NC[C@H]1CC[C@@H](Nc2nc(N(C)C)c3ccccc3n2)CC1` [compound 640, N-[(cis-4-{[4-(dimethylamino)quinazolin-2-yl]amino}cyclohexyl)methyl]-N′-(2-ethylphenyl)thiourea], for which the class is listed as 2 (Class 2: The value of percent of control at 10^−7 M was from 40% to 60% or the value of IC50 was from 50 nM to 200 nM.).

As for `CN(C)c1nc(N[C@H]2CC[C@@H](CNC(=S)Nc3cc(C(F)(F)F)ccc3F)CC2)nc2ccccc12` [compound 641], the class is on record as 3 (Class 3: The value of percent of control at 10^−7 M was more than 60% or the value of IC50 was more than 200 nM.).

With `CN(C)c1nc(N[C@H]2CC[C@@H](CNC(=S)Nc3ccccc3F)CC2)nc2ccccc12` [compound 642], the class is given as 3 (Class 3: The value of percent of control at 10^−7 M was more than 60% or the value of IC50 was more than 200 nM.).

`CN(C)c1nc(N[C@H]2CC[C@@H](CNC(=S)Nc3ccccc3I)CC2)nc2ccccc12` [compound 643]: the class was 3 (Class 3: The value of percent of control at 10^−7 M was more than 60% or the value of IC50 was more than 200 nM.).

Regarding `COc1cc([N+](=O)[O-])ccc1NC(=S)NC[C@H]1CC[C@@H](Nc2nc(N(C)C)c3ccccc3n2)CC1` [compound 644], the class is given as 3 (Class 3: The value of percent of control at 10^−7 M was more than 60% or the value of IC50 was more than 200 nM.).

Turning to `COc1ccc(C)cc1NC(=S)NC[C@H]1CC[C@@H](Nc2nc(N(C)C)c3ccccc3n2)CC1` [compound 645], the class is 3 (Class 3: The value of percent of control at 10^−7 M was more than 60% or the value of IC50 was more than 200 nM.).

As for `CN(C)c1nc(N[C@H]2CC[C@@H](CNC(=S)Nc3cccc(SC(F)(F)F)c3)CC2)nc2ccccc12` [compound 646], the class is recorded as 3 (Class 3: The value of percent of control at 10^−7 M was more than 60% or the value of IC50 was more than 200 nM.).

Turning to `CN(C)c1nc(N[C@H]2CC[C@@H](CNC(=S)Nc3cc(Cl)cc(Cl)c3)CC2)nc2ccccc12` [compound 647], the class is 3 (Class 3: The value of percent of control at 10^−7 M was more than 60% or the value of IC50 was more than 200 nM.).

For the molecule `CN(C)c1nc(N[C@H]2CC[C@@H](CNC(=S)Nc3cc(F)cc(F)c3)CC2)nc2ccccc12` [compound 648], the class is recorded as 3 (Class 3: The value of percent of control at 10^−7 M was more than 60% or the value of IC50 was more than 200 nM.).

In the case of `CN(C)c1nc(N[C@H]2CC[C@@H](CNC(=S)Nc3cccc(C#N)c3)CC2)nc2ccccc12` [compound 649, N-(3-ciyanophenyl)-N′-[(cis-4-{[4-(dimethylamino)quinazolin-2-yl]amino}cyclohexyl)methyl]thiourea], the class was 3 (Class 3: The value of percent of control at 10^−7 M was more than 60% or the value of IC50 was more than 200 nM.).
